# In PubChem BioAssay AID1963865 (Molecular Pharmacology Branch, DTP, NCI, 2024):
# pIC50: −log10 of the molar value.
# Tested on: KRAS PDC multicell spheroid viability
# Test: Anticancer human tumor 825966-067-R-J1-PDC patient-derived colon carcinoma cell line growth inhibition [KRAS2]
# Conditions: for pIC50: curve of first compound; for viability, T/C: stronger effect = lower value
# Description: Multicellular complex tumor spheroid response to RAS pathway inhibitors in combination with a targeted agents in patient-derived cell lines with oncogenic KRAS variants from multiple cancer types
# A high-throughput screen of multi-cell type tumor spheroids was designed to identify active combinations of targeted small molecules and KRAS pathway inhibitors. Complex spheroids include a stromal component modeled by human endothelial cells (HUVEC) and fibroblasts modeled by human mesenchymal stem cells (MSCs). The concentration ranges selected for each drug and investigational agent were based upon clinically achievable concentrations if the clinical Cmax of the agent was known.
# Compounds. The drugs and investigational agents: BI-3406 (NSC825286), BAY-293 (NSC824723), batoprotafib (TNO155; NSC825523), sotorasib (AMG 510; NSC818433), MRTX1257 (NSC819558), elimusertib (BAY 1895344; NSC800525), molibresib (GSK525762; NSC774829), temuterkib (LY3214996; NSC803410), venetoclax (NSC766270), alisertib (NSC759677), olaparib (NSC753686), talazoparib (NSC767125), erdafitinib (NSC781556), ipatasertib (NSC767898), cabozantinib (NSC761068), nintedanib (NSC756659), abemaciclib (NSC768073), docetaxel (NSC628503), trametinib (NSC758246), and sapanisertib (NSC764658) were obtained from the National Cancer Institute (NCI) Developmental Therapeutics Program Chemical Repository. The FDA-approved anticancer drug set is available from the Developmental Therapeutics Program. […] The stock solutions were prepared in dimethyl sulfoxide (DMSO, Sigma-Aldrich, St. Louis, MO, cat. D2650) at 800-fold the tested concentration and stored at -70 degrees C prior to their use. All drugs and investigational agents were tested over a range starting from a high concentration at or near the clinical Cmax and decreasing in half-log increments. If the clinical Cmax for an agent had not been determined, the highest concentration tested was 10 microM.
# Cell Culture. All cells were maintained in an incubator at 37 degrees C and 5% CO2 with 95% humidity. The PDC lines were cultured according to standard operating procedures established by the NCI PDMR (https://pdmr.cancer.gov/sops/default.htm). Briefly, all PDCs were thawed and cultured in Matrigel-coated flasks prepared with a working solution of 1X Ham's F-12 nutrient mix, without supplementation (Invitrogen, Waltham, MA, cat. 11765054), 100 U/mL penicillin-streptomycin (Invitrogen, cat. 15140122), and 2.5% Matrigel (Corning Inc., Corning, NY, cat. 354248) for the first three passages. All PDCs were cultured in complete DMEM/F-12 media containing advanced DMEM/F-12 (Invitrogen, cat. 12634028), 4.9% defined fetal bovine serum, heat inactivated (HyClone Laboratories Inc., Logan, UT, cat. SH30070.03HI), 389 ng/mL hydrocortisone (Sigma-Aldrich, cat. H4001), 9.7 ng/mL human EGF recombinant protein (Invitrogen, cat. PHG0313), 23.4 microg/mL adenine (Sigma-Aldrich, cat. A2786), 97.3 U/mL penicillin-streptomycin (Invitrogen, cat. 15140122), 1.9 mM L-glutamine (Invitrogen, cat. 25030081), and 9.7 microM Y-27632 dihydrochloride (Tocris Bioscience, Bristol, United Kingdom, cat. 1254). The PDCs were cultured in complete DMEM/F12 media without 9.7 microM Y-27632 dihydrochloride for at least two passages prior to the screen. The established cell line HOP-62 was cultured in RPMI 1640 medium, HEPES (Invitrogen, cat. 22400105) with 10% defined fetal bovine serum (HyClone Laboratories Inc., cat. SH30070.03) and 2 mM L-glutamine (Invitrogen, cat. 25030081). The pooled donor HUVEC were cultured in endothelial cell growth medium 2 (PromoCell, Heidelberg, Germany, cat. C-22011) and the hMSC were cultured in mesenchymal stem cell growth medium 2 (PromoCell, cat. C-28009). For all experiments, HUVEC and hMSC were used at passages </=5, while the malignant cell lines were used at passages </=15. […]
# [1] = second compound 0.0316 µM, first compound 0.0316 µM
# [2] = second compound 0.0316 µM, first compound 0.1 µM
# [3] = second compound 0.0316 µM, first compound 0.316 µM
# [4] = second compound 0.0316 µM, first compound 1 µM
# [5] = second compound 0.0316 µM, first compound 3.16 µM
# [6] = second compound 0.0316 µM, first compound 10 µM
# [7] = second compound 0.1 µM, first compound 0.0316 µM
# [8] = second compound 0.1 µM, first compound 0.1 µM
# [9] = second compound 0.1 µM, first compound 0.316 µM
# [10] = second compound 0.1 µM, first compound 1 µM
# [11] = second compound 0.1 µM, first compound 3.16 µM
# [12] = second compound 0.1 µM, first compound 10 µM
# [13] = second compound 0.316 µM, first compound 0.0316 µM
# [14] = second compound 0.316 µM, first compound 0.1 µM
# [15] = second compound 0.316 µM, first compound 0.316 µM
# [16] = second compound 0.316 µM, first compound 1 µM
# [17] = second compound 0.316 µM, first compound 3.16 µM
# [18] = second compound 0.316 µM, first compound 10 µM
# [19] = second compound 1 µM, first compound 0.0316 µM
# [20] = second compound 1 µM, first compound 0.1 µM
# [21] = second compound 1 µM, first compound 0.316 µM
# [22] = second compound 1 µM, first compound 1 µM
# [23] = second compound 1 µM, first compound 3.16 µM
# [24] = second compound 1 µM, first compound 10 µM
# [25] = second compound 3.16 µM, first compound 0.0316 µM
# [26] = second compound 3.16 µM, first compound 0.1 µM
# [27] = second compound 3.16 µM, first compound 0.316 µM
# [28] = second compound 3.16 µM, first compound 1 µM
# [29] = second compound 3.16 µM, first compound 3.16 µM
# [30] = second compound 3.16 µM, first compound 10 µM
# 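Further: spheroids exposed to compounds for 7 days.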
# 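Wherever viability, T/C is given: 100% = DMSO vehicle control viability.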
Compound,pIC50 (second compound 0.0316 µM),pIC50 (second compound 0.1 µM),pIC50 (second compound 0.316 µM),pIC50 (second compound 1 µM),pIC50 (second compound 3.16 µM),"viability, T/C [1] [%]","viability, T/C [2] [%]","viability, T/C [3] [%]","viability, T/C [4] [%]","viability, T/C [5] [%]","viability, T/C [6] [%]","viability, T/C [7] [%]","viability, T/C [8] [%]","viability, T/C [9] [%]","viability, T/C [10] [%]","viability, T/C [11] [%]","viability, T/C [12] [%]","viability, T/C [13] [%]","viability, T/C [14] [%]","viability, T/C [15] [%]",also measured
COC(=O)c1ccc2c(C(=Nc3ccc(N(C)C(=O)CN4CCN(C)CC4)cc3)c3ccccc3)c(O)[nH]c2c1 + C=CC(=O)N1CCN(c2nc(OCC3CCCN3C)nc3c2CCN(c2cccc4cccc(C)c24)C3)CC1CC#N,6.23,6.07,6.27,6.30,6.88,78.2,94.9,75,28.2,0.37,0.12,107,84.5,96.4,42,0.21,0.13,75.4,83.7,95.8,"viability, T/C [16]: 9.82%; viability, T/C [17]: 0.13%; viability, T/C [18]: 0.12%; viability, T/C [19]: 78.8%; viability, T/C [20]: 87.2%; viability, T/C [21]: 73.9%; viability, T/C [22]: 13.7%; viability, T/C [23]: 1.46%; viability, T/C [24]: 0.22%; viability, T/C [25]: 87%; viability, T/C [26]: 27.7%; viability, T/C [27]: 65.5%; viability, T/C [28]: 10.5%; viability, T/C [29]: 0.29%; viability, T/C [30]: 0.2%"
O=C(c1cc(Cc2n[nH]c(=O)c3ccccc23)ccc1F)N1CCN(C(=O)C2CC2)CC1 + C=CC(=O)N1CCN(c2nc(OCC3CCCN3C)nc3c2CCN(c2cccc4cccc(C)c24)C3)CC1CC#N,< 5.00,< 5.00,< 5.00,< 5.00,< 5.00,100,119,96.8,77.1,98.4,80.2,98.7,100,91.8,92.3,109,95.4,94.7,91.2,104,"viability, T/C [16]: 94.1%; viability, T/C [17]: 96.2%; viability, T/C [18]: 97.9%; viability, T/C [19]: 87.1%; viability, T/C [20]: 94.8%; viability, T/C [21]: 91%; viability, T/C [22]: 93.2%; viability, T/C [23]: 99.6%; viability, T/C [24]: 125%; viability, T/C [25]: 96.3%; viability, T/C [26]: 108%; viability, T/C [27]: 111%; viability, T/C [28]: 110%; viability, T/C [29]: 123%; viability, T/C [30]: 109%"
